The source of these data is PubChem BioAssay (NCI).

Common to all, as to experiment: NCI-60 cell line screen, 48 h
For assay [1], the system named is K-562 leukemia.
In assay [2] the test system is 786-0 renal.
The test system of assay [3] is RXF 393 renal.
Assay [4] concerns SK-MEL-5 melanoma.
The subject of assay [5] is TK-10 renal.
The test system of assay [6] is SK-MEL-28 melanoma.
Assay [7] relates to SF-539 CNS.
Assay [8] concerns HL-60(TB) leukemia.

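Interpolation was linear, between the two tested concentrations surrounding the appropriate level; five concentrations were tested over 48 hours in 96-well plates. The concentration for 50% growth inhibition is given as GI50. TGI is the concentration that stops growth completely.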

Take `COc1ccc2c(c1)/C(=C\c1c(Cl)n(C)c3ccccc13)C(=O)N2`: the GI50 in assay [1] is 3.71 µM; in assay [2], 2.18 µM; in assay [3] it was 1.53 µM; in assay [4], 0.76 µM; in assay [5] it was 9.26 µM; in assay [6], 13.5 µM. For the same molecule, the GI50 in assay [7] was 0.672 µM; in assay [8], 0.182 µM. Further, the TGI is greater than 100 µM in assay [1]; 12.5 µM in assay [2]; 8.23 µM in assay [3]; 7 µM in assay [4]; 34.2 µM in assay [5]; greater than 55.4 µM in assay [6]. In addition, the TGI was 3.33 µM in assay [7] and 2.65 µM in assay [8].
On to `CS(=O)(=O)c1ccc(Oc2cc(F)cc(C#N)c2)c2c1[C@H](O)C(F)(F)C2`, for which the GI50 in assay [1], in assay [2], in assay [3], in assay [4], in assay [5] and in assay [6] was greater than 100 µM each time. In addition, the GI50 in assay [7] and in assay [8] was greater than 100 µM throughout. The TGI in assay [1], in assay [2], in assay [3], in assay [4], in assay [5] and in assay [6] was greater than 100 µM throughout. Further, the TGI in assay [7] and in assay [8] was greater than 100 µM throughout.
Take `O=C(NCCNc1nccc(-c2c(-c3ccc(F)cc3)nc3sccn23)n1)c1ccccc1`: the GI50 in assay [1] was 7.72 µM; in assay [2] it was 15.3 µM; in assay [3] it was 6.19 µM; in assay [4] it was 1.66 µM; in assay [5] it was 15.8 µM; in assay [6], 13.4 µM. The figures for the GI50 in assay [7] and in assay [8] were 12.2 µM and 21.3 µM, respectively. For the same molecule, the TGI is greater than 100 µM in assay [1]; greater than 100 µM in assay [2]; 28.3 µM in assay [3]; 13.3 µM in assay [4]; 48.7 µM in assay [5]; 37.1 µM in assay [6]. Besides, the TGI in assay [7] is 29.5 µM; in assay [8], 77.4 µM.
In the case of `CC(=O)OC1Oc2cc(C)c(C)cc2-c2oc(=O)c(-c3ccc(F)cc3)cc21` (stereo unspecified), the GI50 in assay [1] is 3.01 µM; in assay [2], 9.55 µM; in assay [3] it was 2.95 µM; in assay [4] it was 3.35 µM; in assay [5], 17.1 µM; in assay [6], 6.89 µM. The GI50 in assay [7] is 7.1 µM; in assay [8] it was 3.71 µM. Besides, the TGI in assay [1] is 12.3 µM; in assay [2], greater than 100 µM; in assay [3], 8.71 µM; in assay [4] it was 17.2 µM; in assay [5], 71.4 µM; in assay [6], 45.7 µM. The TGI in assay [7] and in assay [8] was greater than 100 µM each time.
As to `C/C(=C\CCc1ccsc1)CC/C=C(\C)CCCN1CCC(CO)CC1`, the GI50 in assay [1] is 1.28 µM; in assay [2], 1.77 µM; in assay [3], 1.31 µM; in assay [4], 1.55 µM; in assay [5], 1.76 µM; in assay [6], 1.69 µM. Also, the figures for the GI50 in assay [7] and in assay [8] were 1.69 µM and 1.94 µM, respectively. Further, the TGI in assay [1] stood at 3.41 µM; in assay [2] it was 3.36 µM; in assay [3], 3.19 µM; in assay [4] it was 2.95 µM; in assay [5], 3.29 µM; in assay [6], 3.38 µM. In addition, the TGI in assay [7] turned out to be 3.36 µM; in assay [8] it was 3.99 µM.
In the case of `COc1cc(/C=C2\C(=O)N(c3ccccc3)c3ccccc32)cc(OC)c1OC`, the GI50 is 3.04 µM in assay [1]; 6.67 µM in assay [2]; 0.107 µM in assay [3]; 7.29 µM in assay [4]; 16.3 µM in assay [5]; 4.91 µM in assay [6]. Moreover, the GI50 in assay [7] was 5.38 µM; in assay [8] it was 2.68 µM. In addition, the TGI is greater than 100 µM in assay [1]; 21.2 µM in assay [2]; 2.87 µM in assay [3]; 26.7 µM in assay [4]; 37.3 µM in assay [5]; 18.4 µM in assay [6]. For the same molecule, the TGI in assay [7] came to 91.7 µM; in assay [8] it was 15 µM.
Turning to `N=c1n(Cc2ccccc2)c(N)cc(=O)n1Cc1ccccc1`, the GI50 in assay [1] is 3.82 µM; in assay [2], 2.97 µM; in assay [3], 1.87 µM; in assay [4] it was 1.9 µM; in assay [5], 2.22 µM; in assay [6], 3.58 µM. Also, the GI50 was 1.96 µM in assay [7] and 2.21 µM in assay [8]. Further, the TGI in assay [1] was greater than 100 µM; in assay [2] it was 9.76 µM; in assay [3] it was 5.71 µM; in assay [4], 3.95 µM; in assay [5], 7.47 µM; in assay [6] it was 11.7 µM. In addition, the TGI in assay [7] came out at 4.25 µM; in assay [8], 4.93 µM.
Consider `O=C(Nc1ccc(OCc2nnc(-c3ccccc3)o2)c(F)c1)Nc1ccc(Cl)c(C(F)(F)F)c1`, for which the GI50 in assay [1] was 2.07 µM; in assay [2], 2.11 µM; in assay [3], 2.62 µM; in assay [4], 1.74 µM; in assay [5], 2.62 µM; in assay [6], 3.08 µM. In addition, the figures for the GI50 in assay [7] and in assay [8] were 2.41 µM and 1.99 µM, respectively. Further, the TGI in assay [1] is 8.79 µM; in assay [2], 4.21 µM; in assay [3], 8.98 µM; in assay [4] it was 3.59 µM; in assay [5], 8.24 µM; in assay [6], greater than 100 µM. Also, the TGI in assay [7] was found to be 13 µM; in assay [8], 4.61 µM.
On to `OCC1OC2OC3C(CO)OC(OC4C(CO)OC(OC5C(CO)OC(OC6C(CO)OC(OC7C(CO)OC(OC1C(O)C2O)C(O)C7O)C(O)C6O)C(O)C5O)C(O)C4O)C(O)C3O` (stereo unspecified) (tested in a mixture with another compound), for which the TGI in assay [1] was greater than 100 µM; in assay [2] it was greater than 100 µM; in assay [3], greater than 100 µM; in assay [4] it was 97.8 µM; in assay [5], greater than 100 µM; in assay [6], greater than 100 µM. In addition, the figures for the TGI in assay [7] and in assay [8] were greater than 78.8 µM and 55 µM, respectively.
